Laboratory results published in ChEMBL document CHEMBL5038581, “Design, synthesis, and biological evaluation of novel dual inhibitors targeting lysine specific demethylase 1 (LSD1) and histone deacetylases (HDAC) for treatment of gastric cancer” (Eur J Med Chem, 2021).
Values belong to the compound of their own block, whether it stands above or below them. Active and inactive are the calls of the source. The rule behind the calls is not given here.

Experiments:
MGC-803 [1] = assay: Inhibition of cell migration in human MGC-803 cells 4 to 8 uM up to 24 hrs by Hoechst 33258 staining based transwell migration assay; type: functional; settings: dose 4-8 µM, time hrs <=24
Histone deacetylase 8 = Histone deacetylase 8 (Homo sapiens, UniProt Q9BY41); assay: Inhibition of HDAC8 (unknown origin) using Ac-peptide as substrate preincubated for 15 mins followed by substrate addition by fluorescence based microplate reader analysis
Sequence of Histone deacetylase 8 (Q9BY41 whole entry): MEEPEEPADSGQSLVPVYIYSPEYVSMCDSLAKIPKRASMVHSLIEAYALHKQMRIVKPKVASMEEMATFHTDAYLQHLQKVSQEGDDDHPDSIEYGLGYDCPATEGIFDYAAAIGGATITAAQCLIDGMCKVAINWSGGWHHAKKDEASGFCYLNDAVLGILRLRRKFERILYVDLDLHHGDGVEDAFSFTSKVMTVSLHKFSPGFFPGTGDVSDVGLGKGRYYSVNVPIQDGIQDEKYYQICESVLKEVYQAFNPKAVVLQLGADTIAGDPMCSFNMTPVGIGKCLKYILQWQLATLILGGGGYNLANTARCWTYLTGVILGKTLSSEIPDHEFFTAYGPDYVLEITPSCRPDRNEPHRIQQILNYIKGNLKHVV

MGC-803 [2] = assay: Inhibition of cell migration in human MGC-803 cells at 2 to 8 uM up to 24 hrs by wound healing assay; type: functional, cell-based; settings: dose 2-8 µM, time hrs <=24
MGC-803 [3] = assay: Inhibition of cell migration in human MGC-803 cells assessed as upregulation of E-cadherin at 2 to 8 uM for 48 hrs by western blot analysis; type: functional, cell-based; settings: dose 2-8 µM
[4] = Metabolic stability in rat liver microsomes assessed as half life in presence of NADPH at 1 uM by LC-MS/MS analysis; type: ADME, Microsome
MGC-803 [5] = assay: Inhibition of cell migration in human MGC-803 cells assessed as downregulation of Vimentin at 2 to 8 uM for 48 hrs by western blot analysis; type: functional, cell-based; settings: dose 2-8 µM
MGC-803 [6] = assay: Inhibition of cell migration in human MGC-803 cells assessed as upregulation of ZO-1 at 2 to 8 uM for 48 hrs by western blot analysis; type: functional, cell-based; settings: dose 2-8 µM
[7] = Metabolic stability in rat liver microsomes assessed as intrinsic clearance in presence of NADPH at 1 uM by LC-MS/MS analysis; type: ADME, Microsome; settings: read-out: CLH
MGC-803 [8] = assay: Inhibition of colony formation in human MGC-803 cells assessed as reduction in colony formation at 4 to 8 uM measured after 7 days by crystal violet staining based microscopic analysis; type: functional, cell-based; settings: dose 4-8 µM, time 7.0 day
Histone deacetylase 5 = Histone deacetylase 5 (Homo sapiens, UniProt Q9UQL6); assay: Inhibition of HDAC5 (unknown origin) using Ac-peptide as substrate preincubated for 15 mins followed by substrate addition by fluorescence assay
Sequence of Histone deacetylase 5 (Q9UQL6 whole entry): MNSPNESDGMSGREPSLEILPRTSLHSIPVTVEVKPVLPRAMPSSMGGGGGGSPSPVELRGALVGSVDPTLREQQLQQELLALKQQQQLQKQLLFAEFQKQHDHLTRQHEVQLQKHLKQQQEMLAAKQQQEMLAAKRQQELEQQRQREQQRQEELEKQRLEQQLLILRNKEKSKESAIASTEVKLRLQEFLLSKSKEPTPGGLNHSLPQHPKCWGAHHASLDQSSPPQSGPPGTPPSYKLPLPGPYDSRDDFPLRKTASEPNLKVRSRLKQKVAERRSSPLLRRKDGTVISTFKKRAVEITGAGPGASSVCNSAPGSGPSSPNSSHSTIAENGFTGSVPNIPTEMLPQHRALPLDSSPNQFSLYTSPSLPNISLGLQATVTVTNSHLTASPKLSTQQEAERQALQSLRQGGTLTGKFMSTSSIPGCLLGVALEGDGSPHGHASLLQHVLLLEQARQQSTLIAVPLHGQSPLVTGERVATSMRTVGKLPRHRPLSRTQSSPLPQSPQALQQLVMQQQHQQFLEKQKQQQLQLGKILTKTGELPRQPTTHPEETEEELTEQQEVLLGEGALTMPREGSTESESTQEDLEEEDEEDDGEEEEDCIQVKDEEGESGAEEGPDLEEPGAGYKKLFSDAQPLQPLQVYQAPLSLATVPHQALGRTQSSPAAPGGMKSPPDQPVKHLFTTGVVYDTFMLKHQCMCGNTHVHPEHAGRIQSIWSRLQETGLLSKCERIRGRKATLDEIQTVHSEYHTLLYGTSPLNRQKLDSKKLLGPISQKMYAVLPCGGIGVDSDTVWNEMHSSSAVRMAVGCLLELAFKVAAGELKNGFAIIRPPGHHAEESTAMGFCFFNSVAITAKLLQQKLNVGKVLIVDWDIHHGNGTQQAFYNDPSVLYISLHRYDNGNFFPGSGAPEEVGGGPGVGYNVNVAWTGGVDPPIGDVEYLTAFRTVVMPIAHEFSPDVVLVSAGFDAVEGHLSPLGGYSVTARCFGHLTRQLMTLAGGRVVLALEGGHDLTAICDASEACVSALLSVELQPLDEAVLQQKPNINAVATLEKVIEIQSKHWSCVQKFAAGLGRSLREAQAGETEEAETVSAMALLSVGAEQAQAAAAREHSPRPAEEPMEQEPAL

MGC-803 [9] = assay: Inhibition of cell migration in human MGC-803 cells 0.2 to 0.8 uM up to 24 hrs by wound healing assay; type: functional, cell-based; settings: dose 0.2-0.8 µM, time hrs <=24
MGC-803 [10] = assay: Inhibition of cell migration in human MGC-803 cells assessed as upregulation of E-cadherin at 0.2 to 0.6 uM for 48 hrs by western blot analysis; type: functional, cell-based; settings: dose 0.2-0.6 µM
MKN-45 = assay: cells; settings: Homo sapiens, MKN-45, 72 h
BGC-823 = assay: cells; settings: Homo sapiens, BGC-823, 72 h
SNU1 = assay: cells; settings: Homo sapiens, SNU1, 72 h
NCI-N87 = assay: cells; settings: Homo sapiens, NCI-N87, 72 h
Histone deacetylase 2 = Histone deacetylase 2 (Homo sapiens, UniProt Q92769)
Sequence of Histone deacetylase 2 (Q92769 whole entry): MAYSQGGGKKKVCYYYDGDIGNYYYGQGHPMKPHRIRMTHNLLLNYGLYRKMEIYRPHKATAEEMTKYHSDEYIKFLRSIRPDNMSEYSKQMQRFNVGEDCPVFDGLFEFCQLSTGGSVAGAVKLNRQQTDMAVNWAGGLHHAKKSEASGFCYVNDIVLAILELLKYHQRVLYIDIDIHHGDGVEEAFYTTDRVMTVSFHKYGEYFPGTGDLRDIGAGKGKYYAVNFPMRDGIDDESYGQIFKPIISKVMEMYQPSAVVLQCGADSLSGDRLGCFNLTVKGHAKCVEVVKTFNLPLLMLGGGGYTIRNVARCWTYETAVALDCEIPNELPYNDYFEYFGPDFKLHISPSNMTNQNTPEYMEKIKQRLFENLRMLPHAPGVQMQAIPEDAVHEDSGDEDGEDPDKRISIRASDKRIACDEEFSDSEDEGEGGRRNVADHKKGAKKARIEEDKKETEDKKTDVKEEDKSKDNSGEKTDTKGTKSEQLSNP

MGC-803 [11] = assay: Inhibition of cell migration in human MGC-803 cells assessed as downregulation of Vimentin at 0.2 to 0.6 uM for 48 hrs by western blot analysis; type: functional, cell-based; settings: dose 0.2-0.6 µM
MGC-803 [12] = assay: Inhibition of cell migration in human MGC-803 cells 0.2 to 0.6 uM up to 24 hrs by Hoechst 33258 staining based transwell migration assay; type: functional; settings: dose 0.2-0.6 µM, time hrs <=24
MGC-803 [13] = assay: Inhibition of colony formation in human MGC-803 cells assessed as reduction in colony formation at 0.2 to 0.6 uM measured after 7 days by crystal violet staining based microscopic analysis; type: functional, cell-based; settings: dose 0.2-0.6 µM, time 7.0 day
MGC-803 [14] = assay: Inhibition of cell migration in human MGC-803 cells assessed as upregulation of ZO-1 at 0.2 to 0.6 uM for 48 hrs by western blot analysis; type: functional, cell-based; settings: dose 0.2-0.6 µM
AGS = assay: cells; settings: Homo sapiens, 72 h
MKN-1 = assay: cells; settings: Homo sapiens, MKN-1, 72 h

IC50 (Histone deacetylase 8): 4620 nM
half-life at 1 µM [4]: 6.9 min
microsomal CLint at 1 µM [7]: 505 µL/min/mg
IC50 (Histone deacetylase 5): > 10000 nM
Structure (SMILES): O=C(NO)c1ccc(/C=C/c2ccnc(-c3ccccc3O)c2)cc1
inhibition (MGC-803 [1]): Dose-Dependent Effect
inhibition (MGC-803 [2]): Dose-Dependent Effect
Activity (MGC-803 [3]): Active
Activity (MGC-803 [5]): Active
Activity (MGC-803 [6]): Active
Activity (MGC-803 [8]): Dose-Dependent Effect
inhibition (MGC-803 [9]): Dose-Dependent Effect

IC50 (MKN-45): 1160 nM
IC50 (BGC-823): 1500 nM
IC50 (SNU1): 1010 nM
IC50 (Histone deacetylase 8): 8780 nM
IC50 (NCI-N87): 230 nM
half-life at 1 µM [4]: 17.2 min
IC50 (Histone deacetylase 2): 404 nM
microsomal CLint at 1 µM [7]: 202 µL/min/mg
IC50 (Histone deacetylase 5): > 10000 nM
IC50 (AGS): 1560 nM
IC50 (MKN-1): 400 nM
Structure (SMILES): Cc1ccc(-c2cc(/C=C/c3ccc(C(=O)NO)cc3)ccn2)c(F)c1
Activity (MGC-803 [10]): Active
Activity (MGC-803 [11]): Active
inhibition (MGC-803 [12]): Dose-Dependent Effect
inhibition (MGC-803 [13]): Dose-Dependent Effect
Activity (MGC-803 [14]): Active
inhibition (MGC-803 [9]): Dose-Dependent Effect
